How the values were obtained:
h5HT1A = target: T1, h5HT1A (Homo sapiens, UniProt P08908); assay: 5-HT1A receptor binding (3H-8-OH-DPAT); settings: Table 8
T1 construct: expressed in transfected cells; host or cells: COS-7 cells, transient, vector pCEXV-3
Description: 5-HT1A Receptor: The cDNA corresponding to the 5-HT1A receptor open reading frames and variable non-coding 5′- and 3′-regions, was cloned into the eukaryotic expression vector pCEXV-3. These constructs were transfected transiently into COS-7 cells by the DEAE-dextran method (Cullen, 1987), and harvested after 72 hours. Radioligand binding assays were performed as described above for the 5-HT2A receptor, except that ^3H-8-OH-DPAT was used as the radioligand and nonspecific binding was determined by the addition of 10 μM mianserin.

Human 5HT1B receptor = target: T2, Human 5HT1B receptor (Homo sapiens, UniProt P28222); assay: 5HT1B receptor binding ([3H]-serotonin); settings: Table 8
T2 construct: expressed in transfected cells
Description: (§1) Human 5HT1B, 5HT1D, 5HT1E, 5HT1F, and 5HT7 Receptors: The cell lysates of LM(tk−) clonal cell line stably transfected with the genes encoding each of these 5HT receptor-subtypes were prepared as described above. Cell membranes were suspended in 50 mM Tris-HCl buffer (pH 7.4 at 37° C.) containing 10 mM MgCl2, 0.2 mM EDTA, 10 µM pargyline, and 0.1% ascorbate. […] Nonspecific binding was determined in the presence of 10 μM serotonin. The bound radioligand was separated by filtration through GF/B filters using a cell harvester.

Human 5HT1F receptor = target: T3, Human 5HT1F receptor (Homo sapiens, UniProt P30939); assay: 5HT1F receptor binding ([3H]-serotonin); settings: Table 8
T3 construct: expressed in transfected cells
Description: as §1

Human 5HT2A receptor = target: T4, Human 5HT2A receptor (Homo sapiens, UniProt P28223); assay: 5HT2A receptor binding ([3H]ketanserin); settings: Table 8
T4 construct: expressed in transfected cells; host or cells: COS-7 cells, transient, vector pCEXV-3
Description: Human 5HT2A Receptor: The coding sequence of the human 5HT2A receptor was obtained from a human brain cortex cDNA library, and cloned into the cloning site of pCEXV-3 eukaryotic expression vector. This construct was transfected into COS-7 cells by the DEAE-dextran method (Cullen, 1987). Cells were harvested after 72 hours and lysed by sonication in 5 mM Tris-HCl, 5 mM EDTA, pH 7.5. The cell lysates were subjected to centrifugation at 1000 rpm for 5 minutes at 4° C., and the supernatant was subjected to centrifugation at 30,000×g for. 20 minutes at 4° C. The pellet was suspended in 50 mM Tris-HCl buffer (pH 7.7 at room temperature) containing 10 mM MgSO4, 0.5 mM EDTA, and 0.1% ascorbate. The affinity of compounds at 5HT2A receptors were determined in equilibrium competition binding assays using [^3H]ketanserin (1 nM). Nonspecific binding was defined by the addition of 10 μM mianserin. The bound radioligand was separated by filtration through GF/B filters using a cell harvester.

human α1B adrenoceptor = target: T5, human α1B adrenoceptor (Homo sapiens, UniProt P35368); assay: α1B adrenergic receptor binding; settings: Table 10
T5 construct: expressed in transfected cells
Description: (§2) Other receptors: Cell membranes expressing human dopamine D1, D2, D4 and rat D3 receptors were purchased through BioSignal, Inc. (Montreal, Canada). Binding assays using the histamine H, receptor; dopamine receptors; and α1A, α1B, and α2 adrenergic receptors may be carried out according to the procedures described in U.S. Pat. No. 5,780,485, the disclosure of which is hereby incorporated by reference in its entirety into this application. Binding assays using the dopamine D5 receptor may be carried out according to the procedures described in U.S. Pat. No. 5,882,855, the disclosure of which is hereby incorporated by reference in its entirety into this application. Binding assays for the human α1D adrenergic receptor may be carried out according to the procedures described in U.S. Pat. No. 6,156,518, the disclosure of which is hereby incorporated by reference in its entirety into this application.

[1] = target: T6, human α1D adrenergic receptor (Homo sapiens, UniProt P25100); assay: α1D adrenergic receptor binding; settings: Table 10
T6 construct: expressed in transfected cells
Description: as §2

T2 sequence (P28222 whole entry): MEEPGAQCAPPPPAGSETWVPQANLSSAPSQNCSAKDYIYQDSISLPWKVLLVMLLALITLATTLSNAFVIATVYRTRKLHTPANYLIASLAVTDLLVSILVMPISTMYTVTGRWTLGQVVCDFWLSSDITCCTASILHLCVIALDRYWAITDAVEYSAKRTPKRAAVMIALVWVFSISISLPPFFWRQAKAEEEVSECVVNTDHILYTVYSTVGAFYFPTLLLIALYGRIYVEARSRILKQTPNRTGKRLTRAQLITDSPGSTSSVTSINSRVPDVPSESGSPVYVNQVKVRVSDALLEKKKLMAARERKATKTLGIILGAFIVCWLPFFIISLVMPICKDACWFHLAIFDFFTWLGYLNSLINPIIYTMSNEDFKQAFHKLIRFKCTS
T6 sequence (P25100 whole entry): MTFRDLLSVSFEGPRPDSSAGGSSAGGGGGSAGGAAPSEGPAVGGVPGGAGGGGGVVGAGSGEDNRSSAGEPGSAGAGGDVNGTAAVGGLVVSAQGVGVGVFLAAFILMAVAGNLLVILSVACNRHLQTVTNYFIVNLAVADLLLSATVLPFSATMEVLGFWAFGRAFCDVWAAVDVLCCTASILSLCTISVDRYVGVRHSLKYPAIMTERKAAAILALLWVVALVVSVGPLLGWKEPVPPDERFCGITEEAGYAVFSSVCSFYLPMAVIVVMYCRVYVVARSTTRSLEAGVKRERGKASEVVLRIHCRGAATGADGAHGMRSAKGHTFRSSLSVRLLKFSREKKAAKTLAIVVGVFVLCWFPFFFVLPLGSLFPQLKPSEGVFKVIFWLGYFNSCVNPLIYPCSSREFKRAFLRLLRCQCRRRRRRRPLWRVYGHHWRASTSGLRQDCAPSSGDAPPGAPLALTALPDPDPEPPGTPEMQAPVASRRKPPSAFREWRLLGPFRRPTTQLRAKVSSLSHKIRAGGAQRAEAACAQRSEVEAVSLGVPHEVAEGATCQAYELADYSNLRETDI
T3 sequence (P30939 whole entry): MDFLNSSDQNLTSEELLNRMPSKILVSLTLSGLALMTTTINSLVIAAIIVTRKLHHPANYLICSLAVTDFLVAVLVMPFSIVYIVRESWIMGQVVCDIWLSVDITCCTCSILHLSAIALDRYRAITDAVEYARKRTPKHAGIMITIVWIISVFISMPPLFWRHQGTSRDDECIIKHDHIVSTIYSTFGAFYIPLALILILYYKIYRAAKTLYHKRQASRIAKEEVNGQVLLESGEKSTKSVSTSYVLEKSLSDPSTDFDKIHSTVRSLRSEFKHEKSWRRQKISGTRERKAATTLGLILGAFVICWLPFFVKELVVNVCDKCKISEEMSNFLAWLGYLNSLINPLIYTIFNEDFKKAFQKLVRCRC
T5 sequence (P35368 whole entry): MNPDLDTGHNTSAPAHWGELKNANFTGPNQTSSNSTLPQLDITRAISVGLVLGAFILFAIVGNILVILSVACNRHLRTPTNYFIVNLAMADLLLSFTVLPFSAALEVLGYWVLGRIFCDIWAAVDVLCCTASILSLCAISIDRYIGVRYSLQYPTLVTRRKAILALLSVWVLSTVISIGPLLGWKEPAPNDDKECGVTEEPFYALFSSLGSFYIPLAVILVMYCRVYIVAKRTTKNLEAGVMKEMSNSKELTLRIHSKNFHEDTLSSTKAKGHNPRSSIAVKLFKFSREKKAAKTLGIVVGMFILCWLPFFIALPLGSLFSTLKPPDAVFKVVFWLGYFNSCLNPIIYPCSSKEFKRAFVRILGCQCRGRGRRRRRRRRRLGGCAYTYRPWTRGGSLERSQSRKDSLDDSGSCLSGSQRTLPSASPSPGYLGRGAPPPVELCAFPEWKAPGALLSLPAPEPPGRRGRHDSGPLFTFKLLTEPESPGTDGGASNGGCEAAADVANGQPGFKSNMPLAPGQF
T4 sequence (P28223 whole entry): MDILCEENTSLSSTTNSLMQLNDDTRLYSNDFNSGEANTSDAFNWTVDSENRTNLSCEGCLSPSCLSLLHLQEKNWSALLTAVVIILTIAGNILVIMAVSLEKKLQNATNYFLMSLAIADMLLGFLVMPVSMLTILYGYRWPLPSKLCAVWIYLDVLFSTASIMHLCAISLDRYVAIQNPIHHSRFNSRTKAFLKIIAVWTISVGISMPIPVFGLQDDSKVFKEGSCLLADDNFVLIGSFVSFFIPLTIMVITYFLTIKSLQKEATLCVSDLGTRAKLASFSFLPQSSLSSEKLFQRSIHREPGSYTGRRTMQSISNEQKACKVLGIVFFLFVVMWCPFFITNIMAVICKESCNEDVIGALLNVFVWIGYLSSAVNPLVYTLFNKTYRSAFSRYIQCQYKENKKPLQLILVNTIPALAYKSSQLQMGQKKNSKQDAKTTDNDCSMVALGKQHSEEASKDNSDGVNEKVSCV
T1 sequence (P08908 whole entry): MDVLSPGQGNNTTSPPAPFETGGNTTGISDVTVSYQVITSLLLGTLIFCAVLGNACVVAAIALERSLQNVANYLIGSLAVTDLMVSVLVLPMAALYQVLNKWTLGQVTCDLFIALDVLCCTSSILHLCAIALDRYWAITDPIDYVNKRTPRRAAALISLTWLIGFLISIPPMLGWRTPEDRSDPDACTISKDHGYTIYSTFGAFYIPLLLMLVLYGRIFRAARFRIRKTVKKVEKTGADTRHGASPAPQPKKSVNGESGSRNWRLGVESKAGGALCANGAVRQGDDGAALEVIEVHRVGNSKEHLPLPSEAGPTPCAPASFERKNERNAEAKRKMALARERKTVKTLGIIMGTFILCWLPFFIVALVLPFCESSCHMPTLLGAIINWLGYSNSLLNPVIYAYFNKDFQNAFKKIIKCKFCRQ

O=C1C(=Nc2cccc(C(F)(F)F)c2)c2ccccc2N1c1ccccc1 [Example 92, 1-PHENYL-3-[[3-(TRIFLUOROMETHYL)PHENYL]IMINO]-1,3-DIHYDRO-2H-INDOL-2-ONE]
>100: selectivity ratio h5HT1A (Ki h5HT1A / Ki hGAL3) (h5HT1A) | selectivity ratio h5HT1B (Ki h5HT1B / Ki hGAL3) (Human 5HT1B receptor) | selectivity ratio h5HT1F (Ki h5HT1F / Ki hGAL3) (Human 5HT1F receptor) | selectivity ratio h5HT2A (Ki h5HT2A / Ki hGAL3) (Human 5HT2A receptor) | selectivity ratio hα1B (Ki hα1B / Ki hGAL3) (human α1B adrenoceptor) | selectivity ratio hα1D (Ki hα1D / Ki hGAL3) [1]
